Experimental data taken from PMC8770593 (Nature Communications, 2022).
“And” between values parts separate entries of the source, which are not always exact repeats. Equal entries are not always repeated. Where two headings read alike, the source gives them in different places.

Legend:
[1] = molecular target: α1BAR-α2C(YLLY;ECL2) chimera (Homo sapiens, UniProt P35368, A122L/DEL188-193/E186Y/E194Q/E199D/F202W/G179P/I178F/INS181VSLYRQP/K185A/L182D/L314Y/P201T/T198N/V197L/W121Y/W184A); assay: HTRF ligand-binding assay on whole transfected HEK293T/17 cells (QAPB saturation; competition with QAPB tracer)
[2] = molecular target: T1, α1BARXTAL (stabilized α1BAR with DARPin D12 fusion) (Homo sapiens, UniProt P35368, D191Y/E194V/F334L/G183V/I116T/P349L/S150Y/S168C/S95C/T295M/V124M/V333L); assay: HTRF competition ligand-binding assay on whole transfected HEK293T/17 cells (QAPB tracer)
T1 construct: deletion of N-terminal residues M1–N34 and intracellular loop three (ICL3) residues K249–L283, and fusion of DARPin D12[43],[68],[69] to residue C350^7.55; expressed in transfected cells; host or cells: HEK293T/17

wild-type α2CAR = molecular target: T2, wild-type α2CAR (Homo sapiens, UniProt P18825); assay: HTRF ligand-binding assay on whole transfected HEK293T/17 cells (QAPB saturation; competition with QAPB tracer); details: pKi (competition binding), competition with 50 nM QAPB tracer, whole cells, mean
T2 sequence (P18825 37-462 limits assumed): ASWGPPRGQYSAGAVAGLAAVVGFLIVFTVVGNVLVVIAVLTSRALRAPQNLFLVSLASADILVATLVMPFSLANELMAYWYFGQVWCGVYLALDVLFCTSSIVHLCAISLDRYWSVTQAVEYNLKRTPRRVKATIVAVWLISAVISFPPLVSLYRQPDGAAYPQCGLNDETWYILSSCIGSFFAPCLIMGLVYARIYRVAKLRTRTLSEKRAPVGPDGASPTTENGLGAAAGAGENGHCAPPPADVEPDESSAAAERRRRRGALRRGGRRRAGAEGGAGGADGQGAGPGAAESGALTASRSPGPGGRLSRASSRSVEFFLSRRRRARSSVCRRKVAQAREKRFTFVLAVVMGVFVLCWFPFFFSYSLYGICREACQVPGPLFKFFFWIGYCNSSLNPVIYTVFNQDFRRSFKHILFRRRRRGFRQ

[3] = molecular target: α1BAR-α2C(YLLY;N^2.64) chimera (Homo sapiens, UniProt P35368, A122L/L105N/L314Y/V197L/W121Y); assay: as above
Sequence of α1BAR-α2C(YLLY;N^2.64) chimera (P35368 35-520 L105N/W121Y/A122L/V197L/L314Y): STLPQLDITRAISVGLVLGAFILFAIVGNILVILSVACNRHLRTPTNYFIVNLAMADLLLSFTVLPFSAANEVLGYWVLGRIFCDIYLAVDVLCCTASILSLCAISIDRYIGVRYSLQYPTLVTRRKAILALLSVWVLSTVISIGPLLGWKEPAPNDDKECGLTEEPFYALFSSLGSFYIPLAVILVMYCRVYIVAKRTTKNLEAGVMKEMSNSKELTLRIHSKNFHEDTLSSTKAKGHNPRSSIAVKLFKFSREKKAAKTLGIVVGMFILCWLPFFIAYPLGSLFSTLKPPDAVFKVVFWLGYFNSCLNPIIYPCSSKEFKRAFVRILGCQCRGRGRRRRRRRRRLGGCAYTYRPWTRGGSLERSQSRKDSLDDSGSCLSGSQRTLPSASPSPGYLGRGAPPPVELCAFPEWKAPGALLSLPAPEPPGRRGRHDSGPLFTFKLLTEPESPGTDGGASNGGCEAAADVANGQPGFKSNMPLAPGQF

T1 sequence (P35368 with tags, fused parts or gaps with the stated changes): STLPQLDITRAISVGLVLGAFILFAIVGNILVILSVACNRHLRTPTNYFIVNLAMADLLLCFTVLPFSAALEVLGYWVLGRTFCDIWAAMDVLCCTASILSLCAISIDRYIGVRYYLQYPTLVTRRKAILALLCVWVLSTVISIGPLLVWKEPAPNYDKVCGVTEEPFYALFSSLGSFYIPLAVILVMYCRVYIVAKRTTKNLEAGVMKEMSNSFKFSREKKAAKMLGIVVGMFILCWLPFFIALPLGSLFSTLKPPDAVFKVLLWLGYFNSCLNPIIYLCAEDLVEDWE
Sequence of α1BAR-α2C(YLLY;ECL2) chimera (P35368 with tags, fused parts or gaps with the stated changes): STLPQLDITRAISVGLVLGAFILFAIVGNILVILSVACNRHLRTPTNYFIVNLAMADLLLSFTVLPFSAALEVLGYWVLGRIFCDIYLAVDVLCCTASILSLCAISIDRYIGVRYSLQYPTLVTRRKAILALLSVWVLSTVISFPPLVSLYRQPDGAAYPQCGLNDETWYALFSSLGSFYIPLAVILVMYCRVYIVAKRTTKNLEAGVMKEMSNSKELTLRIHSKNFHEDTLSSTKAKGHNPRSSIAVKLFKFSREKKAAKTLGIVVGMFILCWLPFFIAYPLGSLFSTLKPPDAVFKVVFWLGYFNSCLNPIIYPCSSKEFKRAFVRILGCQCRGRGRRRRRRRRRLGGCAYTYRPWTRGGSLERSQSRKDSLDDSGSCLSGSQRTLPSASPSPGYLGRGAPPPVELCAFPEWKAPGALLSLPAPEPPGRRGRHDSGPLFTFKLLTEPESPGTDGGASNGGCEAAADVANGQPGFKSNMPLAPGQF

Q: What does the source list for COc1cc2nc(N3CCN(C(=O)c4ccco4)[C@H]4CCCC[C@H]43)nc(N)c2cc1OC (relative stereo) [cyclazosin, [4-(4-amino-6,7-dimethoxyquinazolin-2-yl)-cis-octahydroquinoxalin-1-yl] furan-2-ylmethanone]?
A: Ki [1]: 2.69 nM; Ki ([2]; competition with 2 nM QAPB tracer, whole cells, read-out: Ki): 6.17 nM; Ki ([2]; construct α1BARXTAL, competition with Cyclazosin against QAPB tracer, HTRF, one value per experiment date, read-out: Calculated pKi values (converted)): 11 nM and 3.94 nM and 5.44 nM; Ki (wild-type α2CAR): 339 nM; Ki [3]: 7.24 nM
